Measurements taken from patent US11440911B2, “Salts and crystals” (INTRA-CELLULAR THERAPIES, INC., priority 2017, dated 2022).

Experiments:
[1] = molecular target: H1 histaminergic (Homo sapiens, UniProt P35367); conditions: cited from earlier work
[2] = molecular target: T1, 5-HT2C (Homo sapiens, UniProt P28335); conditions: cited from earlier work
T1 sequence (P28335 33-458): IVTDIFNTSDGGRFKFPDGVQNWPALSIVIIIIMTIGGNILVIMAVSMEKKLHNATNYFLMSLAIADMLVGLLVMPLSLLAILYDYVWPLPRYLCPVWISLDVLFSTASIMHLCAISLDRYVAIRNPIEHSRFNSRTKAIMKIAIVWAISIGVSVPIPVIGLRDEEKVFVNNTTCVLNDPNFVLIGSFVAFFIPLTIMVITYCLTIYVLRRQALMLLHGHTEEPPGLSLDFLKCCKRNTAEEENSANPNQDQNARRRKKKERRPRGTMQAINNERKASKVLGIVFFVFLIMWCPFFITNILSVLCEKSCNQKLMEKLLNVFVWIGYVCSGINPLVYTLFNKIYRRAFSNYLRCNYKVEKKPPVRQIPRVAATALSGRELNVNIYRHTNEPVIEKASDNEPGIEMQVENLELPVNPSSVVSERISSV

[3] = system: muscarinic; conditions: cited from earlier work
[4] = solubility of free base in organic solvents; format: physicochemical; conditions: variety of organic solvents
[5] = free base form; cited from earlier work
[6] = salt form of U.S. Pat. No. 7,183,282, precipitated from diethyl ether; cited from earlier work

H1 histaminergic, sequence (P35367 whole entry): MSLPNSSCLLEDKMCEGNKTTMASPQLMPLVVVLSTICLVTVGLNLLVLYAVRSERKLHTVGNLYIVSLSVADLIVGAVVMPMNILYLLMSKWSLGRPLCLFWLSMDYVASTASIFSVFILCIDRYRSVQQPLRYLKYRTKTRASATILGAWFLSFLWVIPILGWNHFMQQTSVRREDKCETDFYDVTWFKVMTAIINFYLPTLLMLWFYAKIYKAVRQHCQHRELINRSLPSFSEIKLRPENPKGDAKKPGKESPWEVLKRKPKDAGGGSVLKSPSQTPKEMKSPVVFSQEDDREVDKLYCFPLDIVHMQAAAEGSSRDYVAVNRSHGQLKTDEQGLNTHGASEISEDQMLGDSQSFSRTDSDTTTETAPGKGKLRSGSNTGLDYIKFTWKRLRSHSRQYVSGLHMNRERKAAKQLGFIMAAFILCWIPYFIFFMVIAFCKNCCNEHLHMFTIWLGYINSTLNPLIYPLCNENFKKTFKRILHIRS

| Structure (SMILES) | binding to receptor [1] | binding to receptor [2] | binding to receptor [3] | solubility in organic solvents [4] | aqueous solubility [5] | hygroscopicity [6] | stability [6] |
| --- | --- | --- | --- | --- | --- | --- | --- |
| CN1CCN2c3c(cccc31)[C@@H]1CN(CCCC(=O)c3ccc(F)cc3)CC[C@@H]12 [ITI-007, 1-(4-fluoro-phenyl)-4-((6bR,10aS)-3-methyl-2,3,6b,9,10,10a-hexahydro-1H,7H-pyrido[3′,4′:4,5]pyrrolo[1,2,3-de]quinoxalin-8-yl)-butan-1-one] | negligible binding | negligible binding | negligible binding | good solubility | poor aqueous solubility |  |  |
| CN1CCN2c3c(cccc31)C1CN(CCCC(=O)c3ccc(F)cc3)CCC12.Cl (stereo not shown) [hydrochloride salt form of ITI-007] |  |  |  |  |  | hygroscopic | poor stability |
